From PubChem BioAssay AID248 (DTP/NCI, 2004)
Several values for one entry are separate records, joined by “and”; a condition that tells them apart may be missing. Equal values may be shown once. Inconclusive results and toxic doses are left out. Cut-off read from the data, not from the text of the source: active = T/C of 150% or more; inactive = T/C below 125%.

Test system: L1210 leukemia ip in BDF1 mice, survival T/C
Experiment: NCI In Vivo Anticancer Drug Screen. Data for tumor model L1210 Leukemia (intraperitoneal) in B6D2F1 (BDF1) mice
Conditions: endpoint: mean survival time, higher = longer survival
Summary of the method: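 Tumor cells were implanted, animals were treated, and survival was followed. The result divides the treated measurement by the vehicle-control measurement.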

[1] = dose: 100.0 mg/kg/injection, schedule: Q01DX001 (ip), vehicle: Klucel (hydroxypropylcellulose) (HPC)
[2] = dose: 200.0 mg/kg/injection, schedule: Q01DX001 (ip), vehicle: Klucel (hydroxypropylcellulose) (HPC)
[3] = dose: 400.0 mg/kg/injection, schedule: Q01DX001 (ip), vehicle: Klucel (hydroxypropylcellulose) (HPC)
[4] = dose: 100.0 mg/kg/injection, schedule: Q01DX009 (ip), vehicle: saline with Tween-80
[5] = dose: 100.0 mg/kg/injection, schedule: Q04DX002 (ip), vehicle: saline with Tween-80
[6] = dose: 100.0 mg/kg/injection, schedule: Q04DX003 (ip), vehicle: saline with Tween-80
[7] = dose: 200.0 mg/kg/injection, schedule: Q01DX009 (ip), vehicle: saline with Tween-80
[8] = dose: 200.0 mg/kg/injection, schedule: Q04DX002 (ip), vehicle: saline with Tween-80
[9] = dose: 200.0 mg/kg/injection, schedule: Q04DX003 (ip), vehicle: saline with Tween-80
[10] = dose: 400.0 mg/kg/injection, schedule: Q04DX002 (ip), vehicle: saline with Tween-80
[11] = dose: 400.0 mg/kg/injection, schedule: Q04DX003 (ip), vehicle: saline with Tween-80
[12] = dose: 25.0 mg/kg/injection, schedule: Q04DX002 (ip), vehicle: Klucel (hydroxypropylcellulose) (HPC)
[13] = dose: 50.0 mg/kg/injection, schedule: Q04DX002 (ip), vehicle: Klucel (hydroxypropylcellulose) (HPC)
[14] = dose: 100.0 mg/kg/injection, schedule: Q04DX002 (ip), vehicle: Klucel (hydroxypropylcellulose) (HPC)
[15] = dose: 100.0 mg/kg/injection, schedule: Q01DX009 (ip), vehicle: Klucel (hydroxypropylcellulose) (HPC)
[16] = dose: 100.0 mg/kg/injection, schedule: Q04DX003 (ip), vehicle: Klucel (hydroxypropylcellulose) (HPC)
[17] = dose: 200.0 mg/kg/injection, schedule: Q04DX003 (ip), vehicle: Klucel (hydroxypropylcellulose) (HPC)
[18] = dose: 25.0 mg/kg/injection, schedule: Q04DX003 (ip), vehicle: saline with Tween-80
[19] = dose: 50.0 mg/kg/injection, schedule: Q04DX003 (ip), vehicle: saline with Tween-80

Measured: T/C

COc1ccc(N2C(=O)OC3(CCN(CCCC(=O)c4cccs4)CC3)C2=O)cc1
inactive: [1] 88 % of control | [2] 92 % of control | [3] 100 % of control

Cc1nc2ccccc2cc1CCl
inactive: dose: 75.0 mg/kg/injection, schedule: Q01DX001 (ip), vehicle: acetone 88 % of control | dose: 150.0 mg/kg/injection, schedule: Q01DX001 (ip), vehicle: acetone 88 % of control

O=C(Nc1ccc(Cl)cc1[N+](=O)[O-])Oc1ccc(-c2ccccc2)cc1Cl
inactive: dose: 100.0 mg/kg/injection, schedule: Q01DX001 (ip), vehicle: saline with Tween-80 92 % of control | [4] 95 % of control and 91 % of control | [5] 101 % of control and 102 % of control | [6] 97 % of control | dose: 200.0 mg/kg/injection, schedule: Q01DX001 (ip), vehicle: saline with Tween-80 94 % of control | [7] 94 % of control and 89 % of control | [8] 101 % of control and 91 % of control | [9] 103 % of control | dose: 400.0 mg/kg/injection, schedule: Q01DX001 (ip), vehicle: saline with Tween-80 89 % of control | dose: 400.0 mg/kg/injection, schedule: Q01DX009 (ip), vehicle: saline with Tween-80 99 % of control and 103 % of control | [10] 88 % of control and 91 % of control | [11] 103 % of control

Cc1cccc(NC(=S)N2CCCCC2)c1
inactive: [5] 100 % of control | [8] 100 % of control | [10] 100 % of control

CCOC(=O)CC(C[N+](=O)[O-])C(F)(F)F (stereo not given)
inactive: dose: 100.0 mg/kg/injection, schedule: Q01DX001 (ip), vehicle: other 103 % of control | dose: 200.0 mg/kg/injection, schedule: Q01DX001 (ip), vehicle: other 97 % of control | dose: 400.0 mg/kg/injection, schedule: Q01DX001 (ip), vehicle: other 103 % of control

CCCCN(CCCC)S(=O)(=O)O
inactive: [12] 101 % of control | [13] 108 % of control | [14] 115 % of control

N#CCOc1ccc(Cl)cc1
inactive: dose: 6.25 mg/kg/injection, schedule: Q01DX009 (ip), vehicle: Klucel (hydroxypropylcellulose) (HPC) 96 % of control | dose: 12.5 mg/kg/injection, schedule: Q01DX009 (ip), vehicle: Klucel (hydroxypropylcellulose) (HPC) 97 % of control | dose: 25.0 mg/kg/injection, schedule: Q01DX009 (ip), vehicle: Klucel (hydroxypropylcellulose) (HPC) 95 % of control and 108 % of control | [14] 87 % of control

CCC(S)C(=O)Nc1ccccc1 (stereo not given)
inactive: [6] 107 % of control | [9] 90 % of control | [11] 91 % of control

O=C(/C=C/C(=O)Oc1c(Cl)c(Cl)c(Cl)c(Cl)c1Cl)Oc1c(Cl)c(Cl)c(Cl)c(Cl)c1Cl
inactive: [15] 100 % of control | [16] 111 % of control | dose: 200.0 mg/kg/injection, schedule: Q01DX009 (ip), vehicle: Klucel (hydroxypropylcellulose) (HPC) 104 % of control | [17] 93 % of control | dose: 400.0 mg/kg/injection, schedule: Q01DX009 (ip), vehicle: Klucel (hydroxypropylcellulose) (HPC) 100 % of control | dose: 400.0 mg/kg/injection, schedule: Q04DX003 (ip), vehicle: Klucel (hydroxypropylcellulose) (HPC) 105 % of control

O=C(c1ccccc1)C(Br)C(C(=O)c1ccccc1)c1ccccc1 (stereo not given)
inactive: dose: 50.0 mg/kg/injection, schedule: Q01DX009 (ip), vehicle: saline with Tween-80 94 % of control | [4] 90 % of control | [7] 86 % of control

C/C(=N\NC(N)=S)c1cccs1
inactive: dose: 12.5 mg/kg/injection, schedule: Q04DX003 (ip), vehicle: saline with Tween-80 93 % of control | [18] 103 % of control | [19] 101 % of control

CCOC(=O)N1c2ccccc2C=CC1/C(N)=N/O (stereo not given)
inactive: dose: 50.0 mg/kg/injection, schedule: Q01DX009 (ip), vehicle: Klucel (hydroxypropylcellulose) (HPC) 95 % of control | [15] 89 % of control | [16] 97 % of control | [17] 91 % of control

C=CCN1C(=O)C2C3C=CC(C3)C2C1=O (stereo not given)
inactive: dose: 6.0 mg/kg/injection, schedule: Q04DX002 (ip), vehicle: Klucel (hydroxypropylcellulose) (HPC) 114 % of control | [12] 114 % of control | [13] 117 % of control | [14] 97 % of control

Cc1cc([N+](=O)[O-])ccc1S(=O)(=O)F
inactive: [6] 100 % of control

CC1=CC2(C)Cc3cc(C)cc(C)c3S(=O)(=O)C2C(C(=O)O)=C1 (stereo not given)
inactive: dose: 50.0 mg/kg/injection, schedule: Q01DX001 (ip), vehicle: Klucel (hydroxypropylcellulose) (HPC) 102 % of control | [1] 101 % of control | [2] 98 % of control | [3] 96 % of control

O=C(CCCCl)CC(O)(C(F)(F)Cl)C(F)(F)Cl
inactive: [6] 104 % of control | [9] 102 % of control

CCCCCCN(CCCCCC)C1=C(Cl)C(=O)c2ccccc2C1=O
inactive: dose: 12.5 mg/kg/injection, schedule: Q01DX001 (ip), vehicle: carboxymethylcellulose (CMC) 97 % of control | dose: 25.0 mg/kg/injection, schedule: Q01DX001 (ip), vehicle: carboxymethylcellulose (CMC) 103 % of control | dose: 50.0 mg/kg/injection, schedule: Q01DX001 (ip), vehicle: carboxymethylcellulose (CMC) 96 % of control

C=C(Cl)CN(C)CC(=C)Cl
inactive: dose: 100.0 mg/kg/injection, schedule: Q01DX001 (ip), vehicle: saline 102 % of control

CC12CC3CC(C)(C1)CC(SCCCCCN=C(N)CSSCC(N)=NCCCCCSC14CC5CC(C)(CC(C)(C5)C1)C4)(C3)C2
inactive: dose: 10.0 mg/kg/injection, schedule: Q04DX002 (ip), vehicle: Klucel (hydroxypropylcellulose) (HPC) 110 % of control | dose: 20.0 mg/kg/injection, schedule: Q04DX002 (ip), vehicle: Klucel (hydroxypropylcellulose) (HPC) 102 % of control | dose: 40.0 mg/kg/injection, schedule: Q04DX002 (ip), vehicle: Klucel (hydroxypropylcellulose) (HPC) 87 % of control

CC(=O)NC(NNC(NC(C)=O)(c1ccccc1)c1ccccc1)(c1ccccc1)c1ccccc1
inactive: dose: 100.0 mg/kg/injection, schedule: Q04DX003 (ip), vehicle: saline 105 % of control | dose: 200.0 mg/kg/injection, schedule: Q04DX003 (ip), vehicle: saline 102 % of control | dose: 400.0 mg/kg/injection, schedule: Q04DX003 (ip), vehicle: saline 92 % of control

C=CCCN1CCCC1
inactive: dose: 1.5 mg/kg/injection, schedule: Q01DX009 (ip), vehicle: saline with Tween-80 100 % of control | dose: 3.0 mg/kg/injection, schedule: Q01DX009 (ip), vehicle: saline with Tween-80 93 % of control | dose: 6.0 mg/kg/injection, schedule: Q01DX009 (ip), vehicle: saline with Tween-80 103 % of control | dose: 8.0 mg/kg/injection, schedule: Q04DX003 (ip), vehicle: saline with Tween-80 97 % of control and 105 % of control | dose: 12.0 mg/kg/injection, schedule: Q01DX009 (ip), vehicle: saline with Tween-80 98 % of control | dose: 12.0 mg/kg/injection, schedule: Q04DX003 (ip), vehicle: saline with Tween-80 100 % of control and 105 % of control | dose: 18.0 mg/kg/injection, schedule: Q04DX003 (ip), vehicle: saline with Tween-80 103 % of control and 110 % of control | dose: 25.0 mg/kg/injection, schedule: Q01DX009 (ip), vehicle: saline with Tween-80 88 % of control | [18] 103 % of control | [19] 109 % of control
